Data from US7671009B2, “Dermopharmaceutically and cosmetically active oligopeptides” (DSM IP Assets B.V., priority 2001, dated 2010).
*: point of attachment. Palmitoyl = CCCCCCCCCCCCCCCC(=O)*

System: Collagen Synthesis Type I+III in Fibroblast Cell Cultures (ATCC CCL110)
Assay: Stimulation of collagen synthesis type I+III in fibroblast cell cultures, Sirius Red microassay
Format: cell-based
Details: 24 hours incubation, control without active = 100%
Method: The collagen I and III content in fibroblasts is measured with the Sirius Red microassay. The quantitative determination of collagen is carried out after 24 hours of incubation with the corresponding oligopeptide derivatives. The extracellularly accumulated collagen is determined. Vitamin C and TGF-beta-1 are used as positive controls.
ATCC CCL110 fibroblasts are incubated in culture medium at a density of approx. 125,000 cells/well in 6-well cell culture plates for 2 days (37° C./5% CO2). Afterwards, the medium is discarded and washed twice with PBS, whereupon 1 ml of test medium with corresponding test substances is added. After incubation with test substance under culture conditions (37° C./5% CO2) for further 24 hours, the extracellular collagen is measured with the Sirius Red assay.
After the incubation period, the total volume of test medium (1 ml) is transferred into a flat-bottom 24-well plate and dried overnight at 55° C. The samples are fixed with 1 ml/well of Bouin's fluid for 1 hour at room temperature (RT). The fixing solution is discarded and the plates are washed 2-3 times with water. After drying of the plates, 1 ml of Sirius Red dye reagent is added.
The samples are shaken for 1 hour at RT on a microplate agitator at moderate intensity. Afterwards, the Sirius Red dye reagent is discarded and the plates are washed with 0.01N HCl. The tinted material is dissolved in 0.3 ml of 0.1N NaOH solution and shaken on a microplate agitator for 1 hour at RT.
200 μl of solution is transferred into a flat-bottom 96-well plate and the optical density is measured at 540 nm against 0.1N NaOH solution as the blank.
Culture medium: MEM+10% FCS+100 IU/ml penicillin+0.1 mg/ml streptomycin+1 mM non essential amino acids+1 mM Na-pyruvate+2 mM L-glutamine.
Test medium: DMEM without phenol red (AMIMED)+100 IU/ml penicillin+0.1 mg/ml streptomycin+80 μg/ml beta(β)-aminopropionitrile.
Vitamin C 100 mM (SIGMA A4034) is diluted to 50 μg/ml in the test medium.
Transforming growth factor TGFβ1 1 μg/ml (SIGMA T1654) is diluted to 0.1 ng/ml in the test medium.
The oligopeptide derivatives of the present invention are prepared in a regular concentration of 10 mM and diluted to 50 μM in the test medium.
Sirius Red F3BA dye reagent as the stock solution 1 mg/ml in saturated aqueous picric acid solution. Bouin's fluid: 15 ml of saturated aqueous picric acid solution+5 ml of formaldehyde+1 ml of acetic acid.

Molecule	collagen type I + III after 24 hours, Extracellular (test substance 50 μM) [%]	further results
H-Lys-allo-Thr-allo-Thr-Lys-Ser-OH × 3 AcOH	139	–
H-Lys-Thr-Thr-Dab-Ser-OH × 3 AcOH	137	–
Palm-Lys-Thr-Ser-Lys-Ser-OH (Palmitoyl-KTSKS-OH; SMILES CCCCCCCCCCCCCCCC(=O)N[C@@H](CCCCN)C(=O)N[C@H](C(=O)N[C@@H](CO)C(=O)N[C@@H](CCCCN)C(=O)N[C@@H](CO)C(=O)O)[C@@H](C)O)	128	–
TGFβ1: Transforming growth factor TGFβ1 (SIGMA T1654), positive control [reference compound]	–	collagen type I + III after 24 hours, Extracellular (0.1 ng/ml): 115%
H-Dab-Ser-OH × 2 TFA	131	–
O=C1O[C@H]([C@@H](O)CO)C(O)=C1O [Vitamin C, reference compound]	–	collagen type I + III after 24 hours, Extracellular (Vitamin C positive control, diluted to 50 μg/ml in test medium): 128%
H-Lys-Thr-allo-Thr-Lys-Ser-OH × 3 AcOH	134	–
Lipoyl-Lys (Lipoyl)-Thr-Thr-Lys (Lipoyl)-Ser-OH	162	–
